# Measurements as given in article PMC10140010 (Investigational New Drugs, 2023).
# Several values for one entry are separate records, joined by “and”; a condition that tells them apart may be missing. Equal values may be shown once.
# Legend:
# [1] = biological target: MAP4K4 (Homo sapiens, UniProt O95819); test: Z'-LYTE kinase selectivity; format: biochemical
# [2] = biological target: P38 alpha (Homo sapiens, UniProt Q16539); test: Z'-LYTE kinase selectivity; format: biochemical
# [3] = biological target: CDK2 (Homo sapiens, UniProt P24941); test: Z'-LYTE kinase selectivity; format: biochemical
# [4] = biological target: CaMK2 alpha (Homo sapiens, UniProt Q9UQM7); test: Z'-LYTE kinase selectivity; format: biochemical
# [5] = biological target: TAOK2 (Homo sapiens, UniProt Q9UL54); test: Z'-LYTE kinase selectivity; format: biochemical
# [6] = biological target: MST4 (Homo sapiens, UniProt Q9P289); test: Z'-LYTE kinase selectivity; format: biochemical
# [7] = biological target: MAPKAPK2 (Homo sapiens, UniProt P49137); test: Z'-LYTE kinase selectivity; format: biochemical
# [8] = biological target: JAK2 (Homo sapiens, UniProt O60674); test: Z'-LYTE kinase selectivity; format: biochemical
# [9] = biological target: PKA (Homo sapiens, UniProt P17612); test: Z'-LYTE kinase selectivity; format: biochemical
# [10] = test system: LU-01-0015 (HIP-ALK) patient derived lung-tumor xenografts; test: LU-01-0015 patient-derived xenograft model (tumor volume, body weight); format: in vivo, BALB/c nude mice; conditions: for Tumor volume Mean: group mean; for Tumor volume: individual mouse, in mm³
# Protocol: Female BALB/c nude mice (4–6 weeks old) were provided by Shanghai Sipple-Bikai Laboratory Animal Co., Ltd. and Beijing Vital River Laboratory Animal Technology Co., Ltd. The mice were housed in a specific pathogen-free environment under a 12 h light/dark cycle, and had free access to sterile animal feed and water.
# PDX and CDX models were used for in vivo studies. Patient-derived tumors tissues were divided into about 30 mm^3 and transplanted into the right dorsal subcutis. Treatment began when the tumor size reached to 200 mm^3. The mice were randomly assignied into the corresponding dosing groups (9 mice in each group). Drugs were deliverd via daily oral for 4 weeks. Tumor size was measured periodically using a digital caliper (Cal Pro, Sylvac, Switzerland), and tumor volume was calculated as 0.5 × length × width^2. For more detailed information, please refer to Supplementary materials. All procedures and protocols of xenograft models were approved by the Institutional Animal Care and Use Committee of WuXi AppTec.
# Patient-derived tumor tissue was segmented into small pieces of approximately 20–30 mm^3 and transplanted subcutaneously into the right back of mice. When the tumor volume reached 150-200 mm^3, the mice were randomly divided into corresponding groups (9 mice in each group, female). Administered by gavage once daily for 4 weeks.
# [11] = biological target: SRC (Homo sapiens, UniProt P12931); test: Z'-LYTE kinase selectivity; format: biochemical
# [12] = biological target: MINK (Homo sapiens, UniProt Q8N4C8); test: Z'-LYTE kinase selectivity; format: biochemical
# [13] = biological target: LCK (Homo sapiens, UniProt P06239); test: Z'-LYTE kinase selectivity; format: biochemical
# [14] = biological target: ABL (Homo sapiens, UniProt P00519); test: Z'-LYTE kinase selectivity; format: biochemical
# [15] = biological target: EPHA2 (Homo sapiens, UniProt P29317); test: Z'-LYTE kinase selectivity; format: biochemical
# [16] = test system: Karpas299 (NPM-ALK) cells; test: Cell proliferation (CellTiter-Glo); format: cell-based
# Protocol: (§1) Cell proliferation assay was performed using methods reported in the previous article. Cell proliferation was measured using the CellTiter-Glo® (CTG) Luminescent Cell Viability Assay (Promega, WI, USA). Cells were seeded in 96-well plates at 15,000 cells per well in detection medium containing 0.5% fetal bovine serum and placed in an incubator at 37℃ and 5% CO2 overnight. On the following day, iruplinalkib was serially diluted with DMSO, further diluted in assay medium, and added to the designated wells for serial dilution of iruplinalkib to the target gradient concentration.
# [17] = test system: NCI-H1975 (EGFR^L858R/T790M) cells; test: Cell proliferation (CellTiter-Glo); format: cell-based
# Protocol: as §1
# [18] = test system: HCC-78 (SLC34A2-ROS1) cells; test: Cell proliferation (CellTiter-Glo); format: cell-based
# Protocol: as §1
# [19] = test system: Ba/F3 cells; test: Cell proliferation (CellTiter-Glo); format: cell-based; conditions: read-out: IC50 BaF3
# Protocol: as §1
# [20] = test system: Ba/F3 (SLC34A2-ROS1) cells; test: Cell proliferation (CellTiter-Glo); format: cell-based; conditions: read-out: IC50 BaF3 SLC34A2-ROS1
# Protocol: as §1
# [21] = test system: NIH-3T3 (CD74-ROS1) cells; test: Cell proliferation (CellTiter-Glo); format: cell-based
# Protocol: as §1
# [22] = 5 mg/kg PO QD×4 W, day 0 after administration
# [23] = 5 mg/kg PO QD×4 W, day 7 after administration
# [24] = 5 mg/kg PO QD×4 W, day 10 after administration
# [25] = 5 mg/kg PO QD×4 W, day 14 after administration
# [26] = 5 mg/kg PO QD×4 W, day 17 after administration
# [27] = 5 mg/kg PO QD×4 W, day 21 after administration
# [28] = 5 mg/kg PO QD×4 W, day 24 after administration
# [29] = 5 mg/kg PO QD×4 W, day 27 after administration
# [30] = 10 mg/kg PO QD×4 W, day 0 after administration
# [31] = 10 mg/kg PO QD×4 W, day 3 after administration
# [32] = 10 mg/kg PO QD×4 W, day 7 after administration
# [33] = 10 mg/kg PO QD×4 W, day 10 after administration
# [34] = 10 mg/kg PO QD×4 W, day 14 after administration
# [35] = 10 mg/kg PO QD×4 W, day 17 after administration
# [36] = 10 mg/kg PO QD×4 W, day 21 after administration
# [37] = 10 mg/kg PO QD×4 W, day 24 after administration
# [38] = 10 mg/kg PO QD×4 W, day 27 after administration
# EPHA2, sequence (P29317 24-976): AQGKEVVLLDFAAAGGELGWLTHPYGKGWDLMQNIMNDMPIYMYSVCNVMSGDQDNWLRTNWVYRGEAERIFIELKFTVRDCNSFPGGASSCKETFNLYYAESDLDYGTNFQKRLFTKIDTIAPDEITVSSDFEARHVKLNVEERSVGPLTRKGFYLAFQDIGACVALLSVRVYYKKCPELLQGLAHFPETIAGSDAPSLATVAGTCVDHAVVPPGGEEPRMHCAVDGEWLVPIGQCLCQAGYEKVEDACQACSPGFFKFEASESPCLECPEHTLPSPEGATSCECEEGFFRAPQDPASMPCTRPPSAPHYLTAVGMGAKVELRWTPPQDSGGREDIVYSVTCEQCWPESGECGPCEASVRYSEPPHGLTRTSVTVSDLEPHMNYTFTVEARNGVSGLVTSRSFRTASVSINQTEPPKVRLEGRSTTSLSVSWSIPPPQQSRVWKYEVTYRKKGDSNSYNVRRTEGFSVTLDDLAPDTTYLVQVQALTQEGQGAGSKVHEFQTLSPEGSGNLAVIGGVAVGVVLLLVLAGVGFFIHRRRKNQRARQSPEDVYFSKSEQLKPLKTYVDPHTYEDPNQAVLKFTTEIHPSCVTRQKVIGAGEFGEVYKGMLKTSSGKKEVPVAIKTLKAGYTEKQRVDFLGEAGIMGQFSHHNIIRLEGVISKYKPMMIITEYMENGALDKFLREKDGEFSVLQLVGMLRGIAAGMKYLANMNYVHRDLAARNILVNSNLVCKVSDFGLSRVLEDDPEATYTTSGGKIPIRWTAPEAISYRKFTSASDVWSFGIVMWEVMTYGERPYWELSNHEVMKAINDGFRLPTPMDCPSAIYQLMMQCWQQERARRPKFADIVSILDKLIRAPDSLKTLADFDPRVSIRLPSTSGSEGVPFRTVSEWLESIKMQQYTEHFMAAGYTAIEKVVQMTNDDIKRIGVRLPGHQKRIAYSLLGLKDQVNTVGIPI
# P38 alpha, sequence (Q16539 whole entry): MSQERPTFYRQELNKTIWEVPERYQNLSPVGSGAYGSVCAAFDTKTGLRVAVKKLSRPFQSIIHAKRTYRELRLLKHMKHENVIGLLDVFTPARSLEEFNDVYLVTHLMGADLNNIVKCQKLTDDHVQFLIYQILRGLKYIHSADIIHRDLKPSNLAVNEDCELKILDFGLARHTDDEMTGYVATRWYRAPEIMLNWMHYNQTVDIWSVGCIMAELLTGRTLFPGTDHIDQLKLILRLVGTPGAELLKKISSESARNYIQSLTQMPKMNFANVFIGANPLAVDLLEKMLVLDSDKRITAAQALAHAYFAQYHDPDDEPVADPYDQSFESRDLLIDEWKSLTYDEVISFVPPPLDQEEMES
# MAP4K4, sequence (O95819 whole entry): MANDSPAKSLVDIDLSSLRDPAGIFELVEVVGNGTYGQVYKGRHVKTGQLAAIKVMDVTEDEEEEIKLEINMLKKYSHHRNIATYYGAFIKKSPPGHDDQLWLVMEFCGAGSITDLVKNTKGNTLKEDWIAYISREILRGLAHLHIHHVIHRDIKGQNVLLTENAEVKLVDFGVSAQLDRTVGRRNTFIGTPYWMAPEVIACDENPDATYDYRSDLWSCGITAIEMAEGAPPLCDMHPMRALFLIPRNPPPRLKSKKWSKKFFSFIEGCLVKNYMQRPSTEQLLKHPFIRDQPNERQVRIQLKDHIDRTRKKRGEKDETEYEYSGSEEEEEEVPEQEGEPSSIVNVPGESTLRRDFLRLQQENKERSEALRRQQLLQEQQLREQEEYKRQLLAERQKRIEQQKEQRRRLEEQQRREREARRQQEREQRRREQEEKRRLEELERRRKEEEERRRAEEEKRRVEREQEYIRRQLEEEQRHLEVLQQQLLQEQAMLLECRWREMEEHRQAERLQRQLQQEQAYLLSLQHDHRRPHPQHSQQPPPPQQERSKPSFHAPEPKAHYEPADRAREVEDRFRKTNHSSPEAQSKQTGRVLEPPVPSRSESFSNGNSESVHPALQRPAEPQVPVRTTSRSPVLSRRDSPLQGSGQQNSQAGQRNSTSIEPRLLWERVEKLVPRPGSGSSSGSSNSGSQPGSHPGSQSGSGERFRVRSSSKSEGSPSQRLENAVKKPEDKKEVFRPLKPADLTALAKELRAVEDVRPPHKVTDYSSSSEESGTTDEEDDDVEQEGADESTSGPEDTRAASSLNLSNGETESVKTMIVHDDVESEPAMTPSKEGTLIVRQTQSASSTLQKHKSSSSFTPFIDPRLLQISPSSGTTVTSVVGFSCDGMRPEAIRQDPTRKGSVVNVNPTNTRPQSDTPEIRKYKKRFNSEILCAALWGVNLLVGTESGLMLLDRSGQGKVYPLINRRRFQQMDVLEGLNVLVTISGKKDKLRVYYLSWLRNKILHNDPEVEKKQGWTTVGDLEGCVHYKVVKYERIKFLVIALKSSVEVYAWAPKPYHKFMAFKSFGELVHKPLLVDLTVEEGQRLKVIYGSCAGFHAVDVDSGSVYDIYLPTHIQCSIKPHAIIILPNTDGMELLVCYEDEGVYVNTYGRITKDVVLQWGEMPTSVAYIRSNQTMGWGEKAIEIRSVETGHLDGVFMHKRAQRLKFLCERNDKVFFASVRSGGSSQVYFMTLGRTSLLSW
# TAOK2, sequence (Q9UL54 whole entry): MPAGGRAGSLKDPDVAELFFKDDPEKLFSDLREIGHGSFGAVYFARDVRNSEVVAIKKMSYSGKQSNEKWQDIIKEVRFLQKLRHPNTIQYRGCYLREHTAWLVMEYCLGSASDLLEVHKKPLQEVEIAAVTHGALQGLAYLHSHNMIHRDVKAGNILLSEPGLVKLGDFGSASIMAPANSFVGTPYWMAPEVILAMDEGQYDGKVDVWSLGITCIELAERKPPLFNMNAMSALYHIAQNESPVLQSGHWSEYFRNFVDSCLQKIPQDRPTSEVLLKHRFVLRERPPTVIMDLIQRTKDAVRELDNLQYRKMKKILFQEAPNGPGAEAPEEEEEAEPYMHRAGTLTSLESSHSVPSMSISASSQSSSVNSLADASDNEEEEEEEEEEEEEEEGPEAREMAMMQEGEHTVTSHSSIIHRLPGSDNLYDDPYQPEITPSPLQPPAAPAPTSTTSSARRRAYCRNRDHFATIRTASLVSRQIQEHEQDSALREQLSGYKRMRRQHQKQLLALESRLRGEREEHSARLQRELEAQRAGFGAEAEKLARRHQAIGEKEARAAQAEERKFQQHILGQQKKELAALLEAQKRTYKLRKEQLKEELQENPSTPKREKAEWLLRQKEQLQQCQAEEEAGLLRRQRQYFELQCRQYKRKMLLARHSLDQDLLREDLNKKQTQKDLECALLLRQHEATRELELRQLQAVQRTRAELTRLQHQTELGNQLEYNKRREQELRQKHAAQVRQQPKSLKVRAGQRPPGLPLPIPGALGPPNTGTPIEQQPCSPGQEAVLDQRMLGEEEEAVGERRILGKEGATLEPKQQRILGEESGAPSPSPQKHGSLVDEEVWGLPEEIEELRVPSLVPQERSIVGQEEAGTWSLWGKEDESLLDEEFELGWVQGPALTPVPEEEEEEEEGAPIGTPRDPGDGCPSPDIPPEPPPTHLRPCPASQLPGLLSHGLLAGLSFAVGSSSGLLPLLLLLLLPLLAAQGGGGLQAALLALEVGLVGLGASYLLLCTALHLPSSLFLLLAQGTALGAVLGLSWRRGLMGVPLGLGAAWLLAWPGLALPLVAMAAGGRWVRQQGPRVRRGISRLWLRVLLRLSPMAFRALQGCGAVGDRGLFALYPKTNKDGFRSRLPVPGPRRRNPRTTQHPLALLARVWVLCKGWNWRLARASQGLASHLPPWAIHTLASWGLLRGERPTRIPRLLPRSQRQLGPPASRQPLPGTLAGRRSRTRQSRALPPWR
# ABL, sequence (P00519 whole entry): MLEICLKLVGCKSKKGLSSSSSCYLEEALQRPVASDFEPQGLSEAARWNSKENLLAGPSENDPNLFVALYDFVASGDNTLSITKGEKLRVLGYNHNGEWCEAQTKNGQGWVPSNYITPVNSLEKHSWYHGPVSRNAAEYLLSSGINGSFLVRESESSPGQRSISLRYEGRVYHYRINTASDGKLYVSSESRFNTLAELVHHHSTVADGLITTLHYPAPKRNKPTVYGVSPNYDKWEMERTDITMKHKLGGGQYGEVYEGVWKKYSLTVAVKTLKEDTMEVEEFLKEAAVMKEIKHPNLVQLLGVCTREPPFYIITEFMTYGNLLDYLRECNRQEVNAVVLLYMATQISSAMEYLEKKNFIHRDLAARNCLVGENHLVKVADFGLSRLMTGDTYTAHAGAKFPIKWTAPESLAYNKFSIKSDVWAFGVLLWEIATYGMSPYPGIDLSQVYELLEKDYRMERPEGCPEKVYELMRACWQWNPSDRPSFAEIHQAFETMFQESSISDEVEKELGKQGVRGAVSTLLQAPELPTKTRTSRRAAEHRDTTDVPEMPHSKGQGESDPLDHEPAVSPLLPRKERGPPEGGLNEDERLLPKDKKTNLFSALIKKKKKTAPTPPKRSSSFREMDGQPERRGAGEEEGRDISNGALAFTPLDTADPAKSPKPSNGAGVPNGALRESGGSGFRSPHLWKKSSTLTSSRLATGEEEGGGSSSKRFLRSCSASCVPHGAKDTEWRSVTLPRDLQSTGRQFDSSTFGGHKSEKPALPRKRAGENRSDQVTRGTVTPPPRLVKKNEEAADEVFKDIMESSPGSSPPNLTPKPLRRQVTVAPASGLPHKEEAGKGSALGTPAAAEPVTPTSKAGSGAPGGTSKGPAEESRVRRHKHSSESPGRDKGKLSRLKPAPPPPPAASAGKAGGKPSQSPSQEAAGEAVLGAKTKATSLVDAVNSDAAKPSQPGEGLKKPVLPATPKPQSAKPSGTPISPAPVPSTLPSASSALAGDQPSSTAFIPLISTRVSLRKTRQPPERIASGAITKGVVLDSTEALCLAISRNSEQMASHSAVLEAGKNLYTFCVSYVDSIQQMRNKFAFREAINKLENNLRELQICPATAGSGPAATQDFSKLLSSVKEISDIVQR
smiles,measurement,setting,value
"COc1cc(N2CCC(N3CCN(C)CC3)CC2)ccc1Nc1ncc(Cl)c(Nc2ccccc2P(C)(C)=O)n1 [Brigatinib, reference compound]",IC50,[1],1680 ± 762 nM
same,IC50,[2],> 10000 nM
same,IC50,[3],1510 ± 554 nM
same,IC50,[4],319 ± 13 nM
same,IC50,[5],964 ± 48 nM
same,IC50,[6],1080 ± 502 nM
same,IC50,[7],> 10000 nM
same,IC50,[8],680 ± 47 nM
same,IC50,[9],> 10000 nM
same,Tumor volume Mean,[10]; [22],153 mm³
same,Tumor volume,[10]; [22],189 and 117 and 124
same,Tumor volume,"[10]; 5 mg/kg PO QD×4 W, day 3 after administration",172 and 123 and 114
same,Tumor volume Mean,[10]; [23],146 mm³
same,Tumor volume,[10]; [23],149 and 98
same,Tumor volume Mean,[10]; [24],122 mm³
same,Tumor volume,[10]; [24],128 and 67
same,Tumor volume Mean,[10]; [25],123 mm³
same,Tumor volume,[10]; [25],154 and 64
same,Tumor volume Mean,[10]; [26],146 mm³
same,Tumor volume,[10]; [26],177 and 96
same,Tumor volume Mean,[10]; [27],162 mm³
same,Tumor volume,[10]; [27],138 and 255
same,Tumor volume Mean,[10]; [28],148 mm³
same,Tumor volume,[10]; [28],122 and 117
same,Tumor volume Mean,[10]; [29],157 mm³
same,Tumor volume,[10]; [29],113 and 101 and 56
same,Tumor volume Mean,[10]; [30],149 mm³
same,Tumor volume,[10]; [30],229 and 201 and 134 and 173 and 152 and 164 and 80 and 99 and 111
same,Tumor volume Mean,[10]; [31],141 mm³
same,Tumor volume,[10]; [31],206 and 208 and 136 and 143 and 125 and 137 and 82 and 123 and 106
same,Tumor volume Mean,[10]; [32],123 mm³
same,Tumor volume,[10]; [32],195 and 180 and 121 and 110 and 74 and 78 and 152 and 89
same,Tumor volume Mean,[10]; [33],114 mm³
same,Tumor volume,[10]; [33],236 and 171 and 101 and 97 and 63 and 85 and 89 and 106 and 80
same,Tumor volume Mean,[10]; [34],108 mm³
same,Tumor volume,[10]; [34],204 and 172 and 98 and 118 and 60 and 84 and 74 and 89 and 71
same,Tumor volume Mean,[10]; [35],133 mm³
same,Tumor volume,[10]; [35],239 and 176 and 118 and 196 and 66 and 106 and 97 and 89
same,Tumor volume Mean,[10]; [36],133 mm³
same,Tumor volume,[10]; [36],247 and 182 and 156 and 187 and 61 and 96 and 111 and 68 and 85
same,Tumor volume Mean,[10]; [37],136 mm³
same,Tumor volume,[10]; [37],262 and 186 and 98 and 210 and 62 and 101 and 137 and 102 and 70
same,Tumor volume Mean,[10]; [38],152 mm³
same,Tumor volume,[10]; [38],332 and 197 and 131 and 249 and 47 and 95 and 163 and 85 and 70
same,tumor growth inhibition,"[10]; LU-01-0015 and NCI-H3122 xenograft models, all P < 0.05",able to inhibit tumor growth
same,effect on body weight,"[10]; nude mouse xenograft models (LU-01-0015, NCI-H3122), all P ≥ 0.05",no effect
same,IC50,[11],950 ± 309 nM
same,IC50,[12],4040 ± 2160 nM
same,IC50,[13],444 ± 84 nM
same,IC50,[14],596 ± 52 nM
same,IC50,[15],> 10000 nM
same,IC50,[16],9 nM
same,IC50,[17],479 ± 110 nM
same,IC50,[18],425 nM
same,IC50,[19],2120 ± 23 nM
same,IC50,[20],6.49 nM
same,IC50,[21],469 nM
